From publication PMC10350184, “Nullomer peptide increases immune cell infiltration and reduces tumor metabolism in triple negative breast cancer mouse model” (Research Square, 2023)

System: 4T1.2-Luc TNBC tumors
Assay: 4T1.2-Luc orthotopic TNBC mouse model, unilateral tumor: tumor volume, tumor weight and body weight
Format: in vivo, female BALB/c mice
Settings: trehalose IP
Description: The model was created by orthotopically injecting 4T1.2-Luc cells in the 4th mammary fat pad of Balb/c mice, with 1×10^5 cells per mouse. The cell line was developed by Dr. Cheryl Jorcyk and it expresses luciferase gene which serves as a luminescent indicator of gene expression or tumorigenesis, making the tumor cell traceable in vivo. Treatment started after the formation of palpable tumors and was detected by in vivo BLI (IVIS, Perkin Elmer) followed by randomization of the animals per group. For evaluating the effect of the peptides on this model, we carried out two separate studies. The first pilot study involved a set of 4 mice per group with bilateral mammary tumors, which received six IP administration of PBS, 9S1R-NulloPT drug at 50 mg/kg, 100 mg/Kg body weight or Trehalose, over a period of 2 weeks. The present study includes a set of 7–9 mice per group with unilateral tumors including the same groups as previous, but received a total of eight injections per mouse over a period of 2 weeks. […]
Mice were anesthetized by isoflurane followed by measurement of the tumor length and width using a manual Vernier caliper. This was performed before every drug administration and the tumor volume was calculated using the formula (length × width^2)/2. Body weights were also measured before every dose of the drug.

OC[C@H]1O[C@H](O[C@H]2O[C@H](CO)[C@@H](O)[C@H](O)[C@H]2O)[C@H](O)[C@@H](O)[C@@H]1O [Trehalose]
post mortem tumor size, trehalose only group: no significant change
